Source: patent US8921406B2, “5-ring heteroaromatic compounds and their use as binding partners for 5-HT5 receptors” (AbbVie Deutschland GmbH & Co. KG, priority 2005, dated 2014)
Counter-ions that a name gives are not always drawn.

Target: T1, h5-HT5A receptor (Homo sapiens, UniProt P47898)
T1 construct: expressed in transfected cells
Assay: h5-HT5A-[3H]5-CT binding assay
Conditions: membranes of HEK293 cells expressing h5-HT5A; 2.5 nM [3H]5-CT; read-out: Binding affinity 5-HT5A (Ki)
Method: 1. h5-HT5A-[^3H]5-CT Binding Assay
Membranes of HEK293 cells which permanently express the h5-HT5A receptor gene were incubated in 100 mM tris-HCl buffer (pH 7.7) containing 1 mM EDTA, in the presence of 2.5 nM [^3H]5-CT (total volume 600 μL). The total binding is defined as the binding that is observed when the membranes are incubated in the presence of only the radioligand. The inhibition induced by the compound is determined by incubation of cell membranes in the presence of the radioligand and various concentrations of the compound of interest. Nonspecific binding is defined as the [^3H]5-CT binding obtained by incubation of the membranes, the same as for the total binding, but in the presence of 10 μM methiothepine. Following incubation for 75 min at 30° C., the membrane suspension was filtered through a GF/B-Filter coated with 0.03% PEI, using a Skatron® harvesting system. The residual radioactivity in the filter was quantified by liquid scintillation counting.
Various concentrations of the test substances were used in both assays, and the Ki or IC50 values were determined.

T1 sequence (P47898 whole entry): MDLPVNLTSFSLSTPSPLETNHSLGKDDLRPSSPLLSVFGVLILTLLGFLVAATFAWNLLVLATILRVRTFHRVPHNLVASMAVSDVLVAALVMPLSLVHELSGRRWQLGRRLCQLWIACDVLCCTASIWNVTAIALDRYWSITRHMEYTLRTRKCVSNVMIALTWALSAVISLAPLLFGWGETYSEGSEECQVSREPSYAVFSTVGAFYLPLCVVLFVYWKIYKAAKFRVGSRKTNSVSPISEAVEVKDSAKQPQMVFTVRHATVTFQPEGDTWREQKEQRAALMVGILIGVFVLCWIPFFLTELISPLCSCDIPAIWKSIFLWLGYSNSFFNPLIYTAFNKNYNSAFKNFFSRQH

Row | Structure (SMILES) | Ki
1 | COc1ccccc1Cn1cc(-c2nccs2)nc1N [Example 49, 1-(2-Methoxybenzyl)-4-thiazole-2-yl-1H-imidazole-2-ylamine hydrochloride] | < 600 nM
2 | COc1ccccc1Cn1cc(-c2ccc(C#N)s2)nc1N [Example 50, 5-[2-Amino-1-(2-methoxybenzyl)-1H-imidazole-4-yl]thiophene-2-carbonitrile] | < 600 nM
3 | COc1cccc(OC)c1Cn1cc(-c2cc(C)cs2)nc1N [Example 52, 1-(2,6-Dimethoxybenzyl)-4-(4-methylthiophene-2-yl)-1H-imidazole-2-ylamine] | < 600 nM
4 | COc1ccccc1Cn1cc(-c2ccc(N)cc2)nc1N [Example 53, 4-(4-Aminophenyl)-1-(2-methoxybenzyl)-1H-imidazole-2-ylamine hydrochloride] | < 600 nM
5 | COc1cc([N+](=O)[O-])ccc1Cn1cc(-c2ccc(C#N)cc2)nc1N [Example 54, 4-[2-Amino-1-(2-methoxy-4-nitrobenzyl)-1H-imidazole-4-yl]benzonitrile] | > 600 nM
6 | COc1ccccc1Cn1cc(-c2cccnc2)nc1N [Example 61, 1-(2-Methoxybenzyl)-4-pyridine-3-yl-1H-imidazole-2-ylamine] | < 600 nM
7 | COc1ccc(-c2nc(Cc3ccccc3OC)c(N)[nH]2)cc1 [Example 62, 5-(2-Methoxybenzyl)-2-(4-methoxyphenyl)-3H-imidazole-4-ylamine hydrochloride] | > 600 nM

Results, then the compound that gave them:

Row | Ki | Structure (SMILES)
8 | < 600 nM | COc1ccccc1Cn1cc(-c2ccc(OCc3ccccc3)cc2)nc1N [Example 48, 4-(4-Benzyloxyphenyl)-1-(2-methoxybenzyl)-1H-imidazole-2-ylamine]
9 | < 600 nM | COc1ccccc1Cn1cc(-c2cccc(N)c2)nc1N [Example 51, 4-(3-Aminophenyl)-1-(2-methoxybenzyl)-1H-imidazole-2-ylamine]
10 | < 600 nM | COc1ccccc1Cn1cc(-c2cccc(NS(=O)(=O)c3ccc(C(C)C)cc3)c2)nc1N [Example 55, N-{3-[2-Amino-1-(2-methoxybenzyl)-1H-imidazole-4-yl]phenyl}-4-isopropylbenzenesulfonamide]
11 | < 600 nM | COc1ccccc1Cn1cc(-c2cccc(NS(=O)(=O)c3ccccc3)c2)nc1N [Example 56, N-{3-[2-Amino-1-(2-methoxybenzyl)-1H-imidazole-4-yl]phenyl}benzenesulfonamide]
12 | < 600 nM | COc1ccccc1Cn1cc(-c2cccc(NS(C)(=O)=O)c2)nc1N [Example 57, N-{3-[2-Amino-1-(2-methoxybenzyl)-1H-imidazole-4-yl]phenyl}methanesulfonamide]
13 | < 600 nM | COc1ccccc1Cn1cc(-c2cccc(NC(=O)c3ccccc3)c2)nc1N [Example 58, N-{3-[2-Amino-1-(2-methoxybenzyl)-1H-imidazole-4-yl]phenyl}benzamide]
14 | < 600 nM | COc1ccccc1Cn1cc(-c2ccc(NS(=O)(=O)c3ccccc3)cc2)nc1N [Example 59, N-{4-[2-Amino-1-(2-methoxybenzyl)-1H-imidazole-4-yl]phenyl}benzenesulfonamide]
15 | < 600 nM | COc1ccccc1Cn1cc(-c2cccc(NS(=O)(=O)c3cccs3)c2)nc1N [Example 60, Thiophene-2-sulfonic acid {3-[2-amino-1-(2-methoxybenzyl)-1H-imidazole-4-yl]phenyl}amide]
16 | < 600 nM | COc1ccccc1Cn1cc(-c2cccc(NS(=O)(=O)c3ccc(-c4ccccc4)cc3)c2)nc1N [Example 63, Biphenyl-4-sulfonic acid {3-[2-amino-1-(2-methoxybenzyl)-1H-imidazole-4-yl]phenyl}amide]
17 | < 600 nM | COc1ccccc1Cn1cc(-c2cccc(NS(=O)(=O)C(C)C)c2)nc1N [Example 64, Propane-2-sulfonic acid {3-[2-amino-1-(2-methoxybenzyl)-1H-imidazole-4-yl]phenyl}amide]
